{"source": "ChEMBL document CHEMBL5678796", "about": "“A highly potent and selective farnesyltransferase inhibitor ABT-100 in preclinical studies” (Anticancer Drugs, 2005)", "key": {"HCT-116 [1]": {"test_system": "HCT-116", "test": "Antitumor activity against human HCT-116 cells xenografted in nu/nu CD1 mouse assessed as tumor volume at 12.5 mg/kg, sc preinoculated with cells for 5 days followed by once daily compound administration for 21 days and measured on day 25 (reference value: 1569 +/- 165 mm^3)", "format": "functional", "conditions": "time 25 day"}, "[2]": {"test": "Inhibition of FTase in human HCT-15 cells expressing high level of P-gp1 using Ras as substrate assessed as inhibition of substrate post-translation processing in presence of 10% FBS by immunoblot analysis", "format": "cell-based"}, "HCT-116 [3]": {"test_system": "HCT-116", "test": "Antitumor activity against human HCT-116 cells xenografted in nu/nu CD1 mouse assessed as increase in life span at 50 mg/kg, sc preinoculated with cells for 5 days followed by once every 2 days compound administration for 11 times and measured on day 22 relative to vehicle in time to 1 cm3 tumor", "format": "functional", "conditions": "HCT-116, 528 h, time 22 day"}, "Mus musculus [4]": {"test_system": "Mus musculus", "test": "Antiangiogenic activity in human recombinant bFGF-stimulated CF1 mouse corneal model assessed as inhibition of new blood growth area at 50 mg/kg, sc prestimulated with bFGF followed by compound administration and measured on day 5 by slit lamp biomicroscopic analysis relative to control", "format": "functional", "conditions": "CF1, 120 h, time 5 day"}, "HCT-116 [5]": {"test_system": "HCT-116", "test": "Antitumor activity against human HCT-116 cells xenografted in nu/nu CD1 mouse assessed as reduction in tumor volume by measuring tumor to control ratio at 6.25 mg/kg, sc preinoculated with cells for 5 days followed by once daily compound administration for 21 days and measured on day 25", "format": "functional", "conditions": "time 25 day"}, "HCT-116 [6]": {"test_system": "HCT-116", "test": "Antitumor activity against human HCT-116 cells xenografted in nu/nu CD1 mouse assessed as tumor volume at 100 mg/kg, sc preinoculated with cells for 5 days followed by once every 2 days compound administration for 11 times and measured on day 22 (reference value: 1557 +/- 370 mm^3)", "format": "functional", "conditions": "time 22 day"}, "HCT-116 [7]": {"test_system": "HCT-116", "test": "Antitumor activity against human HCT-116 cells xenografted in nu/nu CD1 mouse assessed as increase in life span at 100 mg/kg, sc preinoculated with cells for 5 days followed by once every 2 days compound administration for 11 times and measured on day 22 relative to vehicle in time to 1 cm3 tumor", "format": "functional", "conditions": "HCT-116, 528 h, time 22 day"}, "Mus musculus [8]": {"test_system": "Mus musculus", "test": "Antiangiogenic activity in human recombinant VEGF-stimulated CF1 mouse corneal model assessed as inhibition of new blood growth area at 100 mg/kg, sc prestimulated with VEGF followed by compound administration and measured on day 7 by slit lamp biomicroscopic analysis relative to control", "format": "functional", "conditions": "CF1, 168 h, time 7 day"}, "[9]": {"test": "AUC in dog at 2.5 mg/kg, iv", "format": "ADME, organism-based, Canis lupus familiaris", "conditions": "in vivo"}, "Mus musculus [10]": {"test_system": "Mus musculus", "test": "Antiangiogenic activity in human recombinant bFGF-stimulated CF1 mouse corneal model assessed as inhibition of new blood growth area at 25 mg/kg, sc prestimulated with bFGF followed by compound administration and measured on day 5 by slit lamp biomicroscopic analysis relative to control", "format": "functional", "conditions": "CF1, 120 h, time 5 day"}, "HCT-116 [11]": {"test_system": "HCT-116", "test": "Antitumor activity against human HCT-116 cells xenografted in nu/nu CD1 mouse assessed as reduction in tumor volume by measuring tumor to control ratio at 25 mg/kg, sc preinoculated with cells for 5 days followed by once daily compound administration for 21 days and measured on day 25", "format": "functional", "conditions": "time 25 day"}, "HCT-116 [12]": {"test_system": "HCT-116", "test": "Antitumor activity against human HCT-116 cells xenografted in nu/nu CD1 mouse assessed as reduction in tumor volume by measuring test to control ratio at 50 mg/kg, sc preinoculated with cells for 5 days followed by once every 2 days compound administration for 11 times and measured on day 22", "format": "functional", "conditions": "time 22 day"}, "[13]": {"test": "AUC in rat at 5 mg/kg, iv", "format": "ADME, organism-based", "conditions": "in vivo"}, "[14]": {"test": "AUC in rat at 25 mg/kg, po", "format": "ADME, organism-based", "conditions": "in vivo"}, "[15]": {"test": "Volume of distribution in dog at 2.5 mg/kg, iv", "format": "ADME, organism-based, Canis lupus familiaris", "conditions": "in vivo"}, "HCT-116 [16]": {"test_system": "HCT-116", "test": "Antitumor activity against human HCT-116 cells xenografted in nu/nu CD1 mouse assessed as reduction in tumor volume by measuring test to control ratio at 50 mg/kg, sc preinoculated with cells for 14 days followed by once daily compound administration for 21 days and measured on day 40", "format": "functional", "conditions": "time 40 day"}, "HCT-116 [17]": {"test_system": "HCT-116", "test": "Antitumor activity against human HCT-116 cells xenografted in nu/nu CD1 mouse assessed as tumor volume at 50 mg/kg, sc preinoculated with cells for 14 days followed by once daily compound administration for 21 days and measured on day 40 (reference value: 2973 +/- 593 mm^3)", "format": "functional", "conditions": "time 40 day"}, "HCT-116 [18]": {"test_system": "HCT-116", "test": "Antitumor activity against human HCT-116 cells xenografted in nu/nu CD1 mouse assessed as increase in life span at 25 mg/kg, sc preinoculated with cells for 5 days followed by once daily compound administration for 21 days and measured on day 25 relative to vehicle in time to 1 cm^3 tumor", "format": "functional", "conditions": "HCT-116, 600 h, time 25 day"}, "[19]": {"test": "Half-life in dog at 2.5 mg/kg, po", "format": "ADME, organism-based, Canis lupus familiaris", "conditions": "in vivo"}, "HCT-116 [20]": {"test_system": "HCT-116", "test": "Inhibition of VEGF secretion in human HCT-116 cells incubated for 72 hrs by ELISA", "format": "functional, cell-based", "conditions": "dose 0.1-3 µmol/L"}, "[21]": {"test": "Half-life in rat at 5 mg/kg, iv", "format": "ADME, organism-based", "conditions": "in vivo"}, "[22]": {"test": "Ratio of EC50 for inhibition of FTase in human HCT-116 cells expressing low level of P-gp1 using Ras as substrate assessed as inhibition of substrate post-translation processing in presence of 20% human serum to EC50 for inhibition of FTase in human HCT-116 cells expressing low level of P-gp1 using Ras as substrate assessed as inhibition of substrate post-translation processing in presence of 10% …", "conditions": "condition cancer"}, "Mus musculus [23]": {"test_system": "Mus musculus", "test": "Antiangiogenic activity in human recombinant bFGF-stimulated CF1 mouse corneal model assessed as inhibition of new blood growth area at 100 mg/kg, sc prestimulated with bFGF followed by compound administration and measured on day 5 by slit lamp biomicroscopic analysis relative to control", "format": "functional", "conditions": "CF1, 120 h, time 5 day"}, "HCT-116 [24]": {"test_system": "HCT-116", "test": "Antitumor activity against human HCT-116 cells xenografted in nu/nu CD1 mouse assessed as tumor volume at 50 mg/kg, sc preinoculated with cells for 5 days followed by once every 2 days compound administration for 11 times and measured on day 22 (reference value: 1557 +/- 370 mm^3)", "format": "functional", "conditions": "time 22 day"}, "[25]": {"test": "AUC in dog at 2.5 mg/kg, po", "format": "ADME, organism-based, Canis lupus familiaris", "conditions": "in vivo"}, "[26]": {"test": "Clearance in dog at 2.5 mg/kg, iv", "format": "ADME, organism-based, Canis lupus familiaris", "conditions": "in vivo"}, "[27]": {"test": "Cmax in rat at 5 mg/kg, po", "format": "ADME, organism-based", "conditions": "in vivo"}, "[28]": {"test": "Inhibition of recombinant bovine GGTase I incubated for 30 min sin presence of [3H]FPP by SPA based Topcount scintillation plate reader analysis", "set-up": "species or system Bos taurus"}, "Bos taurus": {"species_on_record": "Bos taurus", "test": "Selectivity index, ratio of IC50 for inhibition of bovine GGTase 1 to IC50 for inhibition of recombinant bovine FTase"}, "HCT-116 [29]": {"test_system": "HCT-116", "test": "Inhibition of VEGF mRNA expression in human HCT-116 cells incubated for 72 hrs by qRT-PCR analysis", "format": "functional, cell-based", "conditions": "dose 1-30 µmol/L"}, "Mus musculus [30]": {"test_system": "Mus musculus", "test": "Antiangiogenic activity in human recombinant VEGF-stimulated CF1 mouse corneal model assessed as inhibition of new blood growth area at 25 mg/kg, sc prestimulated with VEGF followed by compound administration and measured on day 7 by slit lamp biomicroscopic analysis relative to control", "format": "functional", "conditions": "CF1, 168 h, time 7 day"}, "[31]": {"test": "Inhibition of FTase in human HCT-116 cells expressing low level of P-gp1 using Ras as substrate assessed as inhibition of substrate post-translation processing in presence of 20% human serum by immunoblot analysis", "format": "cell-based"}, "[32]": {"test": "Selectivity ratio of EC50 for inhibition of GGTase in H-Ras transformed mouse NIH3T3 cells using Rap 1A as substrate assessed as inhibition of substrate prenylation in presence of 10% bovine serum to EC50 for inhibition of FTase in H-Ras transformed mouse NIH3T3 cells using Ras as substrate assessed as inhibition of substrate prenylation in presence of 10% bovine serum", "conditions": "condition cancer"}, "[33]": {"test": "Cmax in rat at 25 mg/kg, po", "format": "ADME, organism-based", "conditions": "in vivo"}}}
{"smiles": "Cn1cncc1[C@](O)(COc1ccc(C#N)cc1-c1ccc(OC(F)(F)F)cc1)c1ccc(C#N)cc1", "note": "[ABT-100]", "values": [{"measurement": "Activity", "setting": "HCT-116 [1]", "result": 721, "unit": "mm3"}, {"measurement": "EC50", "setting": "[2]", "result": 0.2, "unit": "nM"}, {"measurement": "ILS at 50 mg/kg", "setting": "HCT-116 [3]", "result": 32, "unit": "%"}, {"measurement": "inhibition in vivo at 50 mg/kg", "setting": "Mus musculus [4]", "result": 34, "unit": "%"}, {"measurement": "T/C", "setting": "HCT-116 [5]", "result": 56, "unit": "%"}, {"measurement": "Activity", "setting": "HCT-116 [6]", "result": 691, "unit": "mm3"}, {"measurement": "ILS at 100 mg/kg", "setting": "HCT-116 [7]", "result": 32, "unit": "%"}, {"measurement": "inhibition in vivo at 100 mg/kg", "setting": "Mus musculus [8]", "result": 39, "unit": "%"}, {"measurement": "AUC", "setting": "[9]", "result": 7700, "unit": "ng·h/mL"}, {"measurement": "inhibition in vivo at 25 mg/kg", "setting": "Mus musculus [10]", "result": 32, "unit": "%"}, {"measurement": "T/C", "setting": "HCT-116 [11]", "result": 32, "unit": "%"}, {"measurement": "T/C", "setting": "HCT-116 [12]", "result": 65, "unit": "%"}, {"measurement": "AUC", "setting": "[13]", "result": 3010, "unit": "ng·h/mL"}, {"measurement": "AUC", "setting": "[14]", "result": 4620, "unit": "ng·h/mL"}, {"measurement": "Vd", "setting": "[15]", "result": 3.3, "unit": "L/kg"}, {"measurement": "T/C", "setting": "HCT-116 [16]", "result": 45, "unit": "%"}, {"measurement": "Activity", "setting": "HCT-116 [17]", "result": 1530, "unit": "mm3"}, {"measurement": "ILS at 25 mg/kg", "setting": "HCT-116 [18]", "result": 100, "unit": "%"}, {"measurement": "half-life", "setting": "[19]", "result": 5.9, "unit": "h"}, {"measurement": "inhibition", "setting": "HCT-116 [20]", "result": "Dose-Dependent Effect"}, {"measurement": "half-life", "setting": "[21]", "result": 2.3, "unit": "h"}, {"measurement": "Ratio EC50", "setting": "[22]", "result": 1.5}, {"measurement": "inhibition in vivo at 100 mg/kg", "setting": "Mus musculus [23]", "result": 49, "unit": "%"}, {"measurement": "Activity", "setting": "HCT-116 [24]", "result": 873, "unit": "mm3"}, {"measurement": "AUC", "setting": "[25]", "result": 2840, "unit": "ng·h/mL"}, {"measurement": "clearance", "setting": "[26]", "result": 5.67, "unit": "mL/min/kg"}, {"measurement": "Cmax", "setting": "[27]", "result": 80, "unit": "ng/mL"}, {"measurement": "IC50", "setting": "[28]", "result": "> 10000", "unit": "nM"}, {"measurement": "Ratio IC50", "setting": "Bos taurus", "result": "> 100000"}, {"measurement": "inhibition", "setting": "HCT-116 [29]", "result": "Dose-Dependent Effect"}, {"measurement": "inhibition in vivo at 25 mg/kg", "setting": "Mus musculus [30]", "result": 8, "unit": "%"}, {"measurement": "EC50", "setting": "[31]", "result": 1.7, "unit": "nM"}, {"measurement": "Ratio EC50", "setting": "[32]", "result": ">41000"}, {"measurement": "Cmax", "setting": "[33]", "result": 740, "unit": "ng/mL"}]}
